Consider three substances from paper PMC2956696, “A novel antiangiogenic peptide derived from hepatocyte growth factor inhibits neovascularization in vitro and in vivo” (Molecular Vision, 2010).

Data set [1] has as its system RF/6A cells. Nature of the data set: Cell viability with H-RN alone (MTS). The data set is classed as cell-based, rhesus macaque. To be noted: any concentration tested, vs culture medium group. The protocol:
A cell proliferation assay was performed as described previously. A colorimetric MTS (3-(4,5-dimeth-ylthiazol-2-yl)-5-(3-carboxymethoxyphenol)-2-(4-sulphophenyl)-2H-tetrazolium) assay (CellTiter 96 AQ; Promega, Madison, WI) was used according to the manufacturer’s instructions. Briefly, cells were seeded onto a 96-well plate (4.8×10^3 cells/well). After 24 h, cells were serum-starved overnight, and then treated with 100 ng/ml VEGF and various doses of H-RN or H-FT (0, 1 μM, 10 μM, 100 μM, or 1 mM) in 100 μl of serum-free medium for an additional 24 h. In positive control group, 100 μl of serum-free medium contains 100 ng/ml VEGF and 0.25 or 2.5 mg/ml bevacizumab (Avastin®, Hoffmann-La Roche Ltd., Basel, Switzerland), and the negative control group contains 100 ng/ml VEGF and a scrambled peptide at concentrations of 1 μM, 10 μM, 100 μM, or 1 mM. […] The absorbance at 490 nm was recorded using a microplate reader (Bio-Rad, Model 680, Hercules, CA). […]
RF/6A cells were exposed for 24 h to VEGF (100 ng/ml), or to VEGF combined with various concentrations of bevacizumab, H-RN, or H-FT. […] At the highest dose of H-RN tested (1 mM), the mean absorbance value was very close to that of the control group (0.735 versus 0.673), though this inhibitory effect was not as strong as that of 2.5 mg/ml bevacizumab (0.735 versus 0.615). […]

For data set [2], the system named is RF/6A cells. Nature of the data set: Endothelial cell tube formation assay on Matrigel. The settings on record: 100 ng/ml VEGF, 6 h, peptides 100 nM-1 mM, bevacizumab both concentrations. The data set is classed as cell-based, rhesus macaque. The protocol: A tube formation assay was performed as previously described. The 96 well culture plate were coated with Matrigel™ (BD Biosciences, Bedford, MA) according to the manufacturer’s instructions. RF/6A cells (2.5×10^4 in number) were preincubated with various concentrations of bevacizumab or peptides (100 nM–1 mM) before being seeded on coated plates in a serum-free medium containing VEGF 100 ng/ml, and then incubated at 37 °C for 6 h. Tube formation was observed using an inverted phase contrast microscope (Olympus, Tokyo, Japan). Images were captured with a digital camera (Olympus). The degree of tube formation was quantified by measuring the length of tubes in three randomly chosen fields (with magnification of ×100) from each well using the Image-Pro Plus Program (version 5.1; Media Cybernetics, Inc.). Each group was tested in triplicate. Each experiment was repeated three times.

The test system of data set [3] is RF/6A cells. The data set can be described thus: VEGF-stimulated cell proliferation assay (MTS). The settings on record: 24 h. The data set is classed as cell-based, rhesus macaque. The protocol: A cell proliferation assay was performed as described previously. A colorimetric MTS (3-(4,5-dimeth-ylthiazol-2-yl)-5-(3-carboxymethoxyphenol)-2-(4-sulphophenyl)-2H-tetrazolium) assay (CellTiter 96 AQ; Promega, Madison, WI) was used according to the manufacturer’s instructions. Briefly, cells were seeded onto a 96-well plate (4.8×10^3 cells/well). After 24 h, cells were serum-starved overnight, and then treated with 100 ng/ml VEGF and various doses of H-RN or H-FT (0, 1 μM, 10 μM, 100 μM, or 1 mM) in 100 μl of serum-free medium for an additional 24 h. In positive control group, 100 μl of serum-free medium contains 100 ng/ml VEGF and 0.25 or 2.5 mg/ml bevacizumab (Avastin®, Hoffmann-La Roche Ltd., Basel, Switzerland), and the negative control group contains 100 ng/ml VEGF and a scrambled peptide at concentrations of 1 μM, 10 μM, 100 μM, or 1 mM. After completion of the treatment, 20 μl of the 3-(4,5-dimethylthiazol-2-yl)-5-(3-carboxymethoxyphenol)-2-(4-sulphophenyl)-2H-tetrazolium (MTS) reagent were pipetted into each well and incubated for 4 h. The absorbance at 490 nm was recorded using a microplate reader (Bio-Rad, Model 680, Hercules, CA). Each group was tested at least in triplicate, and the assays were repeated a minimum of three times.

Data set [4] has as its system RF/6A cells. The data set can be described thus: VEGF-driven cell migration assay (Transwell). Format: cell-based, rhesus macaque. The settings on record: 100 ng/ml VEGF, 24 h, H-FT 1 nM to 1 µM, bevacizumab both concentrations. The protocol:
A cell migration assay was performed as described previously, with modification as below. Briefly, RF/6A cells were starved overnight, trypsinized, and suspended at a final concentration of 5×10^5 cells/ml. Various concentrations of bevacizumab or peptides were preincubated with the cells for 30 min at 37 °C before seeding into the Transwell chambers (pretreated by culture medium, 10 mm diameter, 8.0 µm pore size; Corning Inc., New York, NY), the 5×10^4 cells were added to each upper chamber. VEGF (100 ng/ml) was placed into the lower chamber. The assembled cell-culture insert chamber was then incubated at 37 °C for 24 h. After removing the nonmigrating cells in the upper chambers with a cotton swab, migrated cells on the lower surface of the porous membrane were fixed, stained with Gram stain, and photographed under a light microscope (Olympus, Tokyo, Japan). Five random fields (×200) were chosen in each insert, and the cell number was quantified manually. Each experiment was repeated three times.

No end group written: not given here.

H-FTSNPEVRYEV-OH showed a Peptide remaining after 48 h above 90%.

As to RNPRGEEGGPW [H-RN], the Peptide remaining after 48 h was above 90%. For the same substance, the “Cell viability with peptide alone (in words)” value in the data set with RF/6A cells [1] was “cell viability was not affected”.

For bevacizumab, in the data set on RF/6A cells [2], the “Inhibition of VEGF-induced tube formation (in words)” value was “strongly inhibited”. In addition, the “Inhibition of VEGF-induced cell proliferation (in words)” value with RF/6A cells [3] (100 ng/ml VEGF, peptides 1 μM-1 mM, bevacizumab 2.5 mg/ml) is “strongly inhibited”. The “Mean absorbance value (490 nm, MTS), VEGF-induced proliferation” value with RF/6A cells [3] (2.5 mg/ml bevacizumab + 100 ng/ml VEGF, serum-free medium, control group 0.673) came out at 0.615. The “Inhibition of VEGF-induced cell migration (in words)” value in the data set with RF/6A cells [4] is on record as “effectively inhibited cell migration”.
